{
  "source": "patent US9901538B2",
  "about": "“Personal care composition containing yeast/polyphenol ferment extract” (priority 2008, dated 2018)",
  "tested_on": "Pichia pastoris",
  "test": "2-Dimensional gel electrophoresis of yeast protein expression",
  "assay_type": "cell-based",
  "conditions": "2D gel, 626 spots analyzed, FIG. 2 and 3",
  "protocol": "To identify the metabolic changes in the yeast because of the polyphenol feed-strategy, 2-Dimensional gel electrophoreses and gene microarray analysis was conducted on the control, (i.e., a yeast extract without resveratrol growth factor), and a yeast-resveratrol ferment extract produced by the process of the present invention. The first dimension IEF focuses on separation of the proteins based on their isoelectric points and was conducted using the EttanIPGphor system with a manifold for protein loading. The 2nd dimension SDS-PAGE is an electrophoretic method for separating polypeptides according to their molecular weights using the DALT VI Electrophoresis Unit (GE-Amersham, Piscataway N.J.) (2, 6). To remove interfering substances and impurities, the yeast cell extracts were purified using the 2D Clean-up kit provided by GE Amersham. Each purified yeast sample was rehydrated overnight with Thiourea rehydration solution (7M Urea and 2M Thiourea, 2% Chaps, 0.5% Pharmalyte). The rehydrated samples were loaded onto the 1st dimension IEF. […]\nFIG. 3 illustrates the laser densitometer comparison of the control versus the yeast/resveratrol of the invention. Reference spot numbering, pI, and MW are given for changing polypeptide spots and analyzed in the samples. […] A total of 626 spots were analyzed.",
  "data": [
    {"smiles": "Oc1ccc(/C=C/c2cc(O)cc(O)c2)cc1", "note": "[resveratrol, 3,4,5-transhydroxystilbene]", "values": [
      {"measurement": "proteomic changes of the yeast versus untreated control", "value": "significant proteomic changes"}
    ]}
  ]
}
